The record followed here is patent US7586003B2, “Derivatives of seleno-amino acids” (Zinpro Corporation, priority 2005, dated 2009).

One data set is described as follows: Solubility in water. The note with it: in words; partly relative to parent seleno-amino acid.
Data set [1] is described as follows: Stability compared with parent seleno-amino acid.
Data set [2] is described as follows: Tissue selenium content of lactating cows fed selenium premixes (milk serum, plasma, liver, whole blood). As to conditions: for Liver Se / Milk Serum Se / Plasma Se / Whole Blood Se: female, cow. It counts as in vivo. On the procedure:
(§1) Three premixes were prepared for use in a field study in lactating cows. One of the premixes contained no additional source of selenium and was intended to serve as the placebo. The second contained sodium selenite and the third contained N-Succinyl L-Selenomethionine (Compound 2). Each of the premixes was prepared by mixing an amount of the selenium source with sufficient amount of finely ground sugar to contain 250 ppm of selenium. Each premix was color identified by the incorporation of a solution of a food color during formulation and given a letter designation by random selection. […] This was done to avoid any possible biases in the interpretation of the results of the feeding experiments. Thirty lactating cows were fed one of the three premixes as a daily topdress. The effect of these selenium sources on tissue selenium content and whole blood glutathione peroxidase activity were determined. All cows were fed a total mixed diet devoid of added selenium for an initial 8-week depletion period. Daily rations were topdressed with an amount of the premix to provide 7.5 mg selenium. Treatments were continued for 8-week followed by a 4-week depletion period. Milk samples were collected on one day per week beginning the week prior to the first depletion period (Week 0) and continuing through the 20 weeks of the experiment. The selenium content of the milk serum obtained after the samples were defatted was determined. Blood samples were collected on one day per week beginning the week prior to the first depletion period (Week 0) and at four week intervals throughout the experiment (Weeks 8, 12, 16 and 20 in Table 1). The blood samples were draw into trace-element free vacutainer tubes containing an anticoagulant. Aliquots of whole blood were analyzed for selenium and glutathione peroxidase activity. Other aliquots of blood were centrifuged to harvest plasma and the selenium content of the plasma samples was determined. Liver samples were obtained by biopsy on one day per week beginning the week prior to the first depletion period (Week 0) and at four week intervals throughout the experiment (Weeks 8, 12, 16 and 20 in Table 1). Liver samples were analyzed for selenium content. […] The dramatic changes in the selenium concentrations in response to changes in dietary intake of selenium indicate that these tissues are sensitive indicators of the dietary selenium status of the lactating cows. […] The changes in the selenium concentration and glutathione peroxidase activity (GPX) in whole blood in response to changing dietary selenium intake were less sensitive than those in milk serum, plasma and liver.

In another data set the test system is glutathione peroxidase. As to the kind of experiment: Whole-blood glutathione peroxidase activity of lactating cows fed selenium premixes. Format: in vivo. On the procedure: as §1
Setting [3] is: Wk 0, before first depletion period.
Setting [4] is: Wk 8, end of 8-week depletion, before treatment.
Setting [5] is: Wk 12, 4 weeks of topdress providing 7.5 mg selenium daily.
[6] abbreviates: Wk 16, 8 weeks of topdress providing 7.5 mg selenium daily.
Setting [7] is: Wk 20, end of 4-week second depletion.

Take `C[Se]CC[C@H](N)C(=O)OC(C)C.Cl` [Compound 1, L-Selenomethionine Isopropyl Ester Hydrochloride]: the Solubility in water result in “Solubility in water” is on record as “readily soluble in water”. The “Stability relative to L-selenomethionine” value in data set [1] (in the solid state and in solution) was “significantly more stable than L-selenomethionine”.

As to `C[Se]CC[C@H](NC(=O)CCC(=O)O)C(=O)O` [Compound 2, (S)-4-(1-carboxy-3-(methylselanyl)propylamino)-4-oxobutanoic Acid], the “Liver Se” value in data set [2] (in vivo, 0 week of experiment) is given as 1151 ng/g dry wt; in data set [2] (in vivo, 8 week of experiment) it was 690 ng/g dry wt; in data set [2] (in vivo, 20 week of experiment) it was 1003 ng/g dry wt. The “Milk Serum Se” value amounted to 14.96 ng/mL in data set [2] (in vivo, 0 week of experiment); 4.30 ng/mL in data set [2] (in vivo, 8 week of experiment); 10.91 ng/mL in data set [2] (in vivo, 20 week of experiment). Also, the “Plasma Se” value turned out to be 63.5 ng/mL in data set [2] (in vivo, 0 week of experiment); 43.6 ng/mL in data set [2] (in vivo, 8 week of experiment); 52.2 ng/mL in data set [2] (in vivo, 20 week of experiment). The “Whole Blood Se” value in data set [2] (in vivo, 0 week of experiment) amounted to 144.0 ng/mL; in data set [2] (in vivo, 8 week of experiment) it was 136.3 ng/mL; in data set [2] (in vivo, 20 week of experiment), 112.1 ng/mL. In data set [2] (in vivo), the “Bioavailability as source of dietary selenium” value was “more bioavailable source of dietary selenium than sodium selenite”. Further, the “Whole Blood GPX” value amounted to 18.2 EU/ml in the data set with glutathione peroxidase (setting [3]); 19.2 EU/ml in the data set on glutathione peroxidase (setting [4]); 18.7 EU/ml with glutathione peroxidase (setting [5]); 17.5 EU/ml in the data set with glutathione peroxidase (setting [6]); 19.8 EU/ml with glutathione peroxidase (setting [7]).

Turning to `C[Se]CC[C@H](NC(N)=O)C(=O)O` [Compound 3, N-Carbamoyl L-Selenomethionine], the Solubility in water entry in the data set “Solubility in water” is listed as “more soluble in water”. For the same compound, the “Stability of the solution relative to parent seleno-amino acid” value in data set [1] (solution in water) is on record as “appears to be more stable than the parent seleno-amino acid”.

As for `C[Se]CC[C@@H]1NC(=O)NC1=O` [Compound 4, (S)-5-(2-(methylselanyl)ethyl)midazolidine-2,4-dione], the Solubility in water result in “Solubility in water” is given as “less soluble”. For the same compound, the “Stability relative to parent seleno-amino acid” value in data set [1] is reported as “appears to be more stable than the parent seleno-amino acid”.

With `O=[Se](O)O` [Sodium Selenite, reference compound], in data set [2] (Wk12 & Wk 16, 7.5 mg selenium daily), the “Change of selenium concentrations in milk serum, plasma and liver on supplemented diet” value is “progressive and significant increases”. Moreover, the “Whole Blood GPX” value in the data set on glutathione peroxidase (setting [3]) stood at 17.3 EU/ml; in the data set on glutathione peroxidase (setting [4]), 17.9 EU/ml; with glutathione peroxidase (setting [5]), 17.6 EU/ml; in the data set with glutathione peroxidase (setting [6]), 16.1 EU/ml; in the data set on glutathione peroxidase (setting [7]), 17.9 EU/ml.
